Data reported in article PMC8205030, “Methoxy and bromo scans on N-(5-methoxyphenyl) methoxybenzenesulphonamides reveal potent cytotoxic compounds, especially against the human breast adenocarcinoma MCF7 cell line” (Journal of Enzyme Inhibition and Medicinal Chemistry, 2021).

Tested on: microtubule network of MCF7 cells
Experiment: Immunofluorescence of microtubule network, MCF7
Type: cell-based, human
Conditions: MCF7, 175 nM, 72 h, confocal microscopy
Method: MCF7, HeLa, and HT-29 cells were grown on round glass coverslips coated with poly-L-lysine (12 mm diameter). To reach appropriate cell confluence, coverslips were manipulated in 6-well plates (3 coverslips/well) seeding 3 ml/well of cells in the exponential growth phase at 2 × 10^4 cells/mL. After 24 h incubation, cells were treated with compound 25 at 175 nM and incubated for 72 h. Cells were washed with PBS, fixed with 4% formaldehyde in PBS for 10 min, permeabilized with 0.5% Triton X-100 (Boehringer Mannheim, Ingelheimam Rhein, Germany) in PBS for 10 min, and blocked with 10% BSA in PBS for 30 min. Then, coverslips were incubated with anti-α-tubulin mouse monoclonal antibody (diluted 1:200 in 3% BSA/PBS) (Sigma-Aldrich Co.) and anti-SQSTM1/p62 rabbit monoclonal antibody (diluted 1:100 in 3% BSA/PBS) (Abcam) for 1 h 30 min. After PBS washing, coverslips were incubated with fluorescent secondary antibodies Alexa Fluor 488 goat anti-mouse IgG and Alexa Fluor 594 anti-rabbit (both diluted 1:400 in 1% BSA/PBS) (Molecular Probes, Invitrogen, Thermo Fischer Scientific) for 1 h in darkness. […] Cells were analysed by confocal microscopy using a LEICA SP5 microscope DMI-6000V model coupled to a LEICA LAS AF software computer.

COc1ccc(S(=O)(=O)N(CC#N)c2cc(OC)c(Br)cc2OC)cc1 [Compound 25, N-(4-bromo-2,5-dimethoxyphenyl)-N-(cyanomethyl)-4-methoxybenzenesulphonamide]
Effect on microtubule network: disrupted the microtubule network
